Measured values as given in ChEMBL document CHEMBL2163233, “3-Oxoisoindoline-1-carboxamides: potent, state-dependent blockers of voltage-gated sodium channel Na(V)1.7 with efficacy in rat pain models” (J Med Chem, 2012).
Calls of active or inactive are those of the source. The rule behind the calls is not given here.

How the values were obtained:
[1] = biological target: Nitric oxide synthase 3 (Homo sapiens) (UniProt P29474); settings: 10 uM
[2] = biological target: Estrogen receptor (Homo sapiens) (UniProt P03372); settings: 10 uM
in vivo [3] = settings: Sprague-Dawley, rat, iv, 3 umol/kg
in vivo [4] = settings: Sprague-Dawley, rat, po, 10 umol/kg
[5] = biological target: Prostaglandin G/H synthase 1 (Homo sapiens) (UniProt P23219); settings: 10 uM
in vivo [6] = settings: Sprague-Dawley, rat, po, 10 umol/kg; remark: listed apart in the source
in vivo [7] = settings: Sprague-Dawley, rat, po, 10 umol/kg; remark: listed apart in the source
cells = settings: Homo sapiens, HEK293
Rattus norvegicus [8] = organism: Rattus norvegicus; assay: animal or person; settings: Sprague-Dawley, po, read-out: INH
[9] = biological target: Voltage-dependent T-type calcium channel subunit alpha-1H (Homo sapiens) (UniProt O95180); settings: 31.6 uM
[10] = biological target: Sodium-dependent noradrenaline transporter (Homo sapiens) (UniProt P23975); settings: 10 uM
[11] = biological target: Muscarinic acetylcholine receptor M2 (Homo sapiens) (UniProt P08172); settings: 10 uM
Rattus norvegicus [12] = organism: Rattus norvegicus; assay: animal or person; settings: Sprague-Dawley, po, read-out: INH; remark: listed apart in the source
[13] = biological target: Insulin receptor (Homo sapiens) (UniProt P06213); settings: 10 uM
[14] = biological target: Glycine receptor subunit alpha-1 (Homo sapiens) (UniProt P23415); settings: 33 uM
Rattus norvegicus [15] = organism: Rattus norvegicus; assay: animal or person; settings: Sprague-Dawley, po, read-out: INH; remark: listed apart in the source
[16] = biological target: Histamine H1 receptor (Homo sapiens) (UniProt P35367); settings: 10 uM
[17] = biological target: D(2) dopamine receptor (Homo sapiens) (UniProt P14416); settings: 10 uM
[18] = biological target: Transient receptor potential cation channel subfamily A member 1 (Homo sapiens) (UniProt O75762); settings: 11 uM
Rattus norvegicus [19] = organism: Rattus norvegicus; assay: animal or person; settings: Sprague-Dawley, po, read-out: INH; remark: listed apart in the source
in vitro [20] = settings: Sprague-Dawley, rat, plasma
[21] = biological target: 5-hydroxytryptamine receptor 2A (Homo sapiens) (UniProt P28223); settings: 10 uM
in vivo [22] = settings: Sprague-Dawley, rat, po, 10 umol/kg; remark: listed apart in the source
[23] = biological target: Mu-type opioid receptor (Homo sapiens) (UniProt P35372); settings: 10 uM
in vivo [24] = settings: Sprague-Dawley, rat, po, 10 umol/kg; remark: listed apart in the source
Rattus norvegicus [25] = organism: Rattus norvegicus; assay: animal or person; settings: Sprague-Dawley, po, read-out: INH; remark: listed apart in the source
[26] = biological target: Acetylcholinesterase (Homo sapiens) (UniProt P22303); settings: 10 uM
Rattus norvegicus [27] = organism: Rattus norvegicus; assay: animal or person; settings: Sprague-Dawley, po, read-out: INH; remark: listed apart in the source
[28] = biological target: Alpha-2A adrenergic receptor (Homo sapiens) (UniProt P08913); settings: 10 uM
Rattus norvegicus [29] = organism: Rattus norvegicus; assay: animal or person; settings: Sprague-Dawley, po, read-out: INH; remark: listed apart in the source
Rattus norvegicus [30] = organism: Rattus norvegicus; settings: Brain, Brain membranes, 10 uM
[31] = biological target: Alpha-1D adrenergic receptor (Homo sapiens) (UniProt P25100); settings: 10 uM
Rattus norvegicus [32] = organism: Rattus norvegicus; assay: animal or person; settings: Sprague-Dawley, po, read-out: INH; remark: listed apart in the source
[33] = biological target: Beta-1 adrenergic receptor (Homo sapiens) (UniProt P08588); settings: 10 uM
in vivo [34] = settings: Sprague-Dawley, rat, brain/plasma
in vivo [35] = settings: Sprague-Dawley, rat, iv, 3 umol/kg; remark: listed apart in the source
[36] = biological target: Potassium voltage-gated channel subfamily A member 5 (Homo sapiens) (UniProt P22460); settings: 10 uM
in vivo [37] = settings: Sprague-Dawley, rat, iv, 3 umol/kg; remark: listed apart in the source
in vitro [38] = settings: rat, microsomes, CLH
[39] = biological target: Potassium voltage-gated channel subfamily KQT member 2 (Homo sapiens) (UniProt O43526); settings: 10 uM
in vivo [40] = settings: Sprague-Dawley, rat, iv, 3 umol/kg; remark: listed apart in the source
in vitro [41] = settings: human, microsomes, CLH

Alpha-2A adrenergic receptor (Homo sapiens), sequence (P08913 whole entry): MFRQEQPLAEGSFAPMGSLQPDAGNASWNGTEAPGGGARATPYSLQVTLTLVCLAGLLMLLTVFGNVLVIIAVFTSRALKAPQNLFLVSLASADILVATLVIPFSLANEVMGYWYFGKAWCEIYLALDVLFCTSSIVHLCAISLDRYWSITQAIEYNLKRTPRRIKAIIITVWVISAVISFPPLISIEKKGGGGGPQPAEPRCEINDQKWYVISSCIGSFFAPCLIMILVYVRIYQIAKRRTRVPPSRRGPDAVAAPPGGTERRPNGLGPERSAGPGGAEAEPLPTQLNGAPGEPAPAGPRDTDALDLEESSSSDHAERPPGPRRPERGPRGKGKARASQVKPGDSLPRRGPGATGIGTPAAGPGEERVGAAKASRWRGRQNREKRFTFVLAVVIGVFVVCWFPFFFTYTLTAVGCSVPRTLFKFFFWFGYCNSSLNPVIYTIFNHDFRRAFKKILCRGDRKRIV
Prostaglandin G/H synthase 1 (Homo sapiens), sequence (P23219 whole entry): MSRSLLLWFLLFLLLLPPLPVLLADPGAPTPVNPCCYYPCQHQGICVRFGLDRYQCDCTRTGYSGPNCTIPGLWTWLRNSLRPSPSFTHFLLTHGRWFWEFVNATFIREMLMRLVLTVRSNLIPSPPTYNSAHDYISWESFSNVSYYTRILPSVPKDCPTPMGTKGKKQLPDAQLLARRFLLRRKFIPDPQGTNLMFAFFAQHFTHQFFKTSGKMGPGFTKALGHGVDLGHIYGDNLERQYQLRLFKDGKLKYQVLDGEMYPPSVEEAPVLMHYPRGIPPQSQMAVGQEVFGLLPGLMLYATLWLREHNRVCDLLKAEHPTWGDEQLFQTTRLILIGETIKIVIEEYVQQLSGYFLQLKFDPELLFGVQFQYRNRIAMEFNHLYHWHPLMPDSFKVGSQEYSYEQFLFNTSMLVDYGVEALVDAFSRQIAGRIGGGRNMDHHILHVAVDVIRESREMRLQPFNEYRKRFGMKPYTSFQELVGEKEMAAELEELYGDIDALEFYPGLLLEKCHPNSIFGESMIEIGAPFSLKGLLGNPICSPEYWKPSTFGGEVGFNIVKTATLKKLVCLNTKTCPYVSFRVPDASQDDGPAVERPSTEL
Histamine H1 receptor (Homo sapiens), sequence (P35367 whole entry): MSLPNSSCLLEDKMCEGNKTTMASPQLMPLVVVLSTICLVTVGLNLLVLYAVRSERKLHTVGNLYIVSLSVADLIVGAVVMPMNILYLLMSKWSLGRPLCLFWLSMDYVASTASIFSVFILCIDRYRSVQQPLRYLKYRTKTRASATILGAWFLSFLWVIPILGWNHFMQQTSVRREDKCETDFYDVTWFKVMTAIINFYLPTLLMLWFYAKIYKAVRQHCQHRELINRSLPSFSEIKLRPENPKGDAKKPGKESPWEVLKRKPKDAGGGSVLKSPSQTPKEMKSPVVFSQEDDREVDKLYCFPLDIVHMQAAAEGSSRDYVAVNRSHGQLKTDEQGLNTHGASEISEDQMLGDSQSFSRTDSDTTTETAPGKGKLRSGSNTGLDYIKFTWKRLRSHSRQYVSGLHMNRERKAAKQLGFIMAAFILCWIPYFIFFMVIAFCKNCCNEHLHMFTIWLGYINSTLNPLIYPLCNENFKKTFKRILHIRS
Voltage-dependent T-type calcium channel subunit alpha-1H (Homo sapiens), sequence (O95180 whole entry): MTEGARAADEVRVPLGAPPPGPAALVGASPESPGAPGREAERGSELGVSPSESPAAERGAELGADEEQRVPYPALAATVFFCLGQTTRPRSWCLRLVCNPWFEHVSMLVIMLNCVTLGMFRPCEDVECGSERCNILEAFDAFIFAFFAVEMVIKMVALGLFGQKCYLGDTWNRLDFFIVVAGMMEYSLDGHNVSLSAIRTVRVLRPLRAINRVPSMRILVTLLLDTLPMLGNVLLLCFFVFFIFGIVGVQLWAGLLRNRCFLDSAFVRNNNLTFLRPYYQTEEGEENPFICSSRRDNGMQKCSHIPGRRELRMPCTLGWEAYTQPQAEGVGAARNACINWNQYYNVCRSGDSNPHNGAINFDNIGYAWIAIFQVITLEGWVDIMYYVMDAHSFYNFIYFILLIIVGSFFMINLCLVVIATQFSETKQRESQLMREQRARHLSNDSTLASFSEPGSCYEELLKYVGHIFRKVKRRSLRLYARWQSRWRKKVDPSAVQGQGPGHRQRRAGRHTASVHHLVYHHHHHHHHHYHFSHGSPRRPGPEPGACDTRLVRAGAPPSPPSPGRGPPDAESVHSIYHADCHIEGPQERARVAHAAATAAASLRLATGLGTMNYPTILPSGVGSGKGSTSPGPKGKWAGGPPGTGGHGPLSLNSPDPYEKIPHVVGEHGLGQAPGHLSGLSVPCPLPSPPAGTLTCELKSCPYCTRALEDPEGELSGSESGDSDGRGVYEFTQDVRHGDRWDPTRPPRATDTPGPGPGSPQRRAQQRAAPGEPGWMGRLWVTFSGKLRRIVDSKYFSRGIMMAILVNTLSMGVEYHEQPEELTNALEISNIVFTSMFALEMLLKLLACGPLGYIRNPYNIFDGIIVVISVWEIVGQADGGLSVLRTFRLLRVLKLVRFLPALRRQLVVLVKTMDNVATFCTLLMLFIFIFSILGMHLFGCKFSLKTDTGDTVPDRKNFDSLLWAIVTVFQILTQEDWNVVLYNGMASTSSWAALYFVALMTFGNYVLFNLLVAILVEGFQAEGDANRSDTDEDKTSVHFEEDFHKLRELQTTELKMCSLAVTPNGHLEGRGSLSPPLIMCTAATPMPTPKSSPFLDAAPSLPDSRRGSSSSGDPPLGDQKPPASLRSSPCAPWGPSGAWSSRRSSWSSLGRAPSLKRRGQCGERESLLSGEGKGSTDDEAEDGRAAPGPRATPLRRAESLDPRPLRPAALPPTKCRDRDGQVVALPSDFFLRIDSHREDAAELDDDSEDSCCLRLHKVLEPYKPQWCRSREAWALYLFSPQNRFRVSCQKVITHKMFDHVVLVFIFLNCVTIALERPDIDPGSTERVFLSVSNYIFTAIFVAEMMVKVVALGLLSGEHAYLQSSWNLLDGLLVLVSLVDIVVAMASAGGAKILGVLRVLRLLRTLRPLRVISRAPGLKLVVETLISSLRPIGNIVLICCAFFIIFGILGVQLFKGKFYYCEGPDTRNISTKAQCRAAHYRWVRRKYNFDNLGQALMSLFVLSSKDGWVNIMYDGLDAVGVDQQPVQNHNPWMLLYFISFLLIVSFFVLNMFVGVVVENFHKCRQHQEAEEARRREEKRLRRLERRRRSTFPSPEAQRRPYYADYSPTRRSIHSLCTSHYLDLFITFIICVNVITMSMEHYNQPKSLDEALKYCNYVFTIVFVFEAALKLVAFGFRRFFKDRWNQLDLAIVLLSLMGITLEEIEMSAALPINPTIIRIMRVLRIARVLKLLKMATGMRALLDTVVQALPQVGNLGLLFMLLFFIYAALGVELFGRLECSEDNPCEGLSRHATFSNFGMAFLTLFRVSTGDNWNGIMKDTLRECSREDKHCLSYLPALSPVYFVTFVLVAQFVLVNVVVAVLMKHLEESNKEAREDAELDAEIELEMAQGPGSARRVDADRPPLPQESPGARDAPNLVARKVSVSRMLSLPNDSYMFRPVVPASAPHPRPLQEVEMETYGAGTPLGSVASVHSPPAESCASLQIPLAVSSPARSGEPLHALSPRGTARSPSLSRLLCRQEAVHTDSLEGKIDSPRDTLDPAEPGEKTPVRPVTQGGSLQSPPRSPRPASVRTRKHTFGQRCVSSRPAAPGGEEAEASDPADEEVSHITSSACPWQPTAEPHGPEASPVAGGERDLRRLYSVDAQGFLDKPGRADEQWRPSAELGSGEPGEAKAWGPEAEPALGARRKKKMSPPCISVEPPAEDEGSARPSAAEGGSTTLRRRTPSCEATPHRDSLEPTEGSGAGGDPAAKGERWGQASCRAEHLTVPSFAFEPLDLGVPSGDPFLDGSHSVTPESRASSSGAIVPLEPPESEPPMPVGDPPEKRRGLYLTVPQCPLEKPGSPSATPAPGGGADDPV
Nitric oxide synthase 3 (Homo sapiens), sequence (P29474 whole entry): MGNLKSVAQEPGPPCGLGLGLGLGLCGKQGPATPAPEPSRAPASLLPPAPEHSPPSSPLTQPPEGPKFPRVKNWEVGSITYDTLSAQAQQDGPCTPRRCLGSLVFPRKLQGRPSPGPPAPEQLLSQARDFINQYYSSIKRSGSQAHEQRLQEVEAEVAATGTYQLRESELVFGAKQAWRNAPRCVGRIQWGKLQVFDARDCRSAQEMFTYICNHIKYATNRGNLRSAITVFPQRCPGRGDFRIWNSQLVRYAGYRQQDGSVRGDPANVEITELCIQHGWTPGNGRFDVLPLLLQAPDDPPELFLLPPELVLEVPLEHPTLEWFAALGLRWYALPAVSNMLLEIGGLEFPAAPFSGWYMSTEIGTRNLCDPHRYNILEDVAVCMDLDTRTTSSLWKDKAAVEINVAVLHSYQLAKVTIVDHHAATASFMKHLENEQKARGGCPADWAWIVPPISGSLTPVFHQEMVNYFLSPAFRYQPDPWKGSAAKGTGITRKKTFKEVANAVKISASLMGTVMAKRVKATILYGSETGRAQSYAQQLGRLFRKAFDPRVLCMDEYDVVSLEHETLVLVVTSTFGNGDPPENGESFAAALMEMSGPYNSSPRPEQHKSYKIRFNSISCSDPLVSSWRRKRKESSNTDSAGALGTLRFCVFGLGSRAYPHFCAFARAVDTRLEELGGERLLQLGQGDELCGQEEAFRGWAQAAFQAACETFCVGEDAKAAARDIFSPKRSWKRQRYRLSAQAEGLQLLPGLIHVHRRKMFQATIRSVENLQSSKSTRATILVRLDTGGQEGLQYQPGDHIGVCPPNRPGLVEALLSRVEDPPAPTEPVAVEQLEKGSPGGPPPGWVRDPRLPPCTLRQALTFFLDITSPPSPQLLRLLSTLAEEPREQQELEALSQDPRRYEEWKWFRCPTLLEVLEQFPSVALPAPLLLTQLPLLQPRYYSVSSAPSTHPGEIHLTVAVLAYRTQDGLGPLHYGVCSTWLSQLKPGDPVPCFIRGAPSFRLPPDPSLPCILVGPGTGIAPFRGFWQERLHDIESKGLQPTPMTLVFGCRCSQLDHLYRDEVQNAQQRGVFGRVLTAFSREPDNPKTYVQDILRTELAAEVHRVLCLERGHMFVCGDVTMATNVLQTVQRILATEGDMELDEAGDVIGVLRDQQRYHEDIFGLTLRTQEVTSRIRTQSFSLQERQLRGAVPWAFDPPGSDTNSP

Row | Compound | inhibition [1] | inhibition [2] | AUC (in vivo [3]) [µM·h] | bioavailability (in vivo [4]) [%] | inhibition [5] | AUC (in vivo [6]) [µM·h] | Tmax (in vivo [7]) [h] | IC50 (cells) [µM] | inhibition in vivo at 30 µmol/kg (Rattus norvegicus [8]) [%] | inhibition [9] | inhibition [10] | inhibition [11] | inhibition in vivo at 140 µmol/kg (Rattus norvegicus [12]) [%] | inhibition [13] | inhibition [14] | inhibition [16] | inhibition [17] | inhibition [18] | inhibition in vivo at 30 µmol/kg (Rattus norvegicus [19]) [%] | fraction unbound (in vitro [20]) | further results
1 | O=C(NCc1ccc(OC(F)(F)F)cc1)C1c2ccccc2C(=O)N1CCc1ccccn1 (stereo in doubt; 16A) | inactive | inactive | 1.7 | 37 | inactive | 2.1 | 0.5 | 10 | 25 | 44% | inactive | inactive | 84 | inactive | inactive | inactive | inactive | inactive | 26 | 0.045 | inhibition in vivo at 30 µmol/kg (Rattus norvegicus [15]): 35%; inhibition [21]: inactive; Cmax (in vivo [22]): 600 nM; inhibition [23]: inactive; half-life (in vivo [24]): 5.9 h; inhibition in vivo at 100 µmol/kg (Rattus norvegicus [25]): 56%; inhibition [26]: inactive; inhibition in vivo at 100 µmol/kg (Rattus norvegicus [27]): 44%; inhibition [28]: inactive; inhibition in vivo at 140 µmol/kg (Rattus norvegicus [29]): 53%; inhibition (Rattus norvegicus [30]): 100%; inhibition [31]: inactive; inhibition in vivo at 100 µmol/kg (Rattus norvegicus [32]): 42%; inhibition [33]: inactive; Kp (in vivo [34]): 2
2 | O=C(NCc1ccc(OC(F)(F)F)cc1)C1c2ccccc2C(=O)N1C1CCOCC1 (single isomer, unassigned; enantiomer 2) | inactive | inactive | 1.7 | 20 | inactive | 1.1 | 0.3 | > 33 | 34 | inactive | inactive | inactive | 30 | inactive | inactive | inactive | inactive | inactive | 16 | 0.132 | clearance (in vivo [35]): 30 mL/min/kg; inhibition [36]: inactive; half-life (in vivo [37]): 1 h; inhibition [21]: inactive; microsomal CLint (in vitro [38]): < 10 µL/min/mg; inhibition [39]: inactive; Cmax (in vivo [22]): 600 nM; inhibition [23]: inactive; half-life (in vivo [24]): 1.9 h; inhibition in vivo at 100 µmol/kg (Rattus norvegicus [25]): 54%; inhibition [26]: inactive; inhibition in vivo at 100 µmol/kg (Rattus norvegicus [27]): 65%; inhibition [28]: inactive; Vd (in vivo [40]): 0.8 L/kg; microsomal CLint (in vitro [41]): 15 µL/min/mg; inhibition (Rattus norvegicus [30]): 79%; inhibition [31]: inactive; inhibition in vivo at 100 µmol/kg (Rattus norvegicus [32]): 42%; inhibition [33]: inactive; Kp (in vivo [34]): 1
